For 13 molecules, IC50, Kd and EC50 results are on record in patent US11242351B2, “Tricyclic inhibitors of the BCL6 BTB domain protein-protein interaction and uses thereof” (priority 2017, dated 2022).

In experiment [1] the test system is BCL6 reporter construct in SuDHL4-3×BCL6-TK-Luc cells. The experiment can be described thus: Cell-based luciferase assay (BCL6 reporter). The note with it: 48 h, read-out: Luc IC50. On the procedure: Cell-Based Luciferase Assay:
A BCL6 reporter construct containing three copies of the consensus BCL6 binding site, the TK promoter, and the firefly luciferase gene was stably expressed in SuDHL4 cells after lentivirus infection and selection with Blasticidin. SuDHL4-3×BCL6-TK-Luc cells were seeded into a Viewplate 384-well assay dish at 15,000 cells/well in […] (Alpha-MEM high glucose containing 10% FBS, 25 mM HEPES, […] GlutaMAX, 100 µg/mL Normocin, and […] Gentamycin, Invitrogen). A HP D300 digital dispenser was used to dose cells with DMSO or test compounds across a 10-point range of concentrations (high dose of 10 μM), and cultures were grown in a humidified 5% CO2 incubator at 37° C. After two days, plates were removed from the incubator and equilibrated to room temperature. An equal volume of neolite reporter gene assay reagent was added to each well, and samples were processed according to the manufacturer's instructions (Perkin Elmer). The luminescent signal was measured using an Envision plate reader equipped with a US-Luminescence detector.

Experiment [2] has as its target BCL6 BTB domain (biotin-thrombin-BCL6 amino acids 1-129) (Homo sapiens (Human), UniProt P41182). The experiment can be described thus: Surface Plasmon Resonance (SPR) assay. Format: binding. Conditions: Biacore T200, single cycle kinetic analysis. How it is done: Surface Plasmon Resonance (SPR) Assay
SPR studies were performed using a Biacore™ T200 instrument (GE Health Sciences Inc.). […] The Biacore flow rate was set at 100 μl/min. […] Curve fitting and KD calculations were performed with the Biacore T200 Evaluation software (GE Health Sciences Inc).
(In SPR one partner is held on a chip, and binding of the other changes the refractive index at the surface.)

In the next experiment the test system is Karpas422 cells. The experiment can be described thus: Tumor cell growth inhibition assay. It counts as cell-based. The note with it: Homo sapiens, KARPAS-422, 144 h, read-out: GI Karpas EC50. On the procedure:
Tumor Cell Growth Inhibition Assay:
Karpas422 cells were seeded into a 96-well plate at 2,000 cells/well in 150 μl medium (Alpha-MEM containing 10% FBS, […] Normocin, and […] Gentamycin, Invitrogen). A HP D300 digital dispenser was used to dose cells with DMSO or test compounds across a 10-point range of concentrations (high dose of 5 μM), and cultures were grown in a humidified 5% CO2 incubator at 37° C. After six days, plates were removed from incubator and equilibrated to room temperature. An equal volume of ATPlite assay reagent was added to each well, and samples were processed according to the manufacturer's instructions (Perkin Elmer). The luminescent signal was measured using an Envision plate reader equipped with a US-Luminescence detector.

The mark [3] stands for this setting: SuDHL4-3×BCL6-TK-Luc cells, two days.
The mark [4] stands for this setting: Karpas422 cells, six days, ATPlite.

As usually defined, the IC50 is the midpoint of a concentration-inhibition curve. The term Kd denotes the constant that tells how readily two partners part at equilibrium. Read a low Kd as higher affinity. The term EC50 denotes the concentration that produces a half-maximal response.

Like-named read-outs stand apart in the source and are kept apart here.

For the molecule `C[C@H]1COCCN1c1cc(NC(=O)Cn2cc(-c3cc(Cl)c(O)c(C(N)=O)c3)c3c(=O)n4c(nc32)CCC4)c(Cl)cn1` [I-2, (S)-3-chloro-5-(1-(2-((5-chloro-2-(3-methyl-morpholino)pyridin-4-yl)amino)-2-oxoethyl)-4-oxo-4,6,7,8-tetra-hydro-1H-dipyrrolo [1,2-a:2′,3′-d]pyrimidin-3-yl)-2-hydroxy-benzamide], the IC50 in experiment [1] (setting [3]) was 95 nM. The molecule also came in with a Kd in experiment [2] of 4.48 nM. The EC50 with Karpas422 cells (setting [4]) is 304 nM.

As for `C[C@H]1COCCN1c1cc(NC(=O)Cn2cc(-c3cc(C(N)=O)c(O)c(F)c3F)c3c(=O)n4c(nc32)CCC4)c(Cl)cn1` [I-3, (S)-5-(1-(2-((5-chloro-2-(3-methylmorpho-lino)pyridin-4-yl)amino)-2-oxoethyl)-4-oxo-4,6,7,8-tetrahydro-1H-dipyrrolo[1,2-a:2′,3′-d]pyrimidin-3-yl)-3,4-difluoro-2-hydroxy-benzamide], the IC50 in experiment [1] (setting [3]) is 708 nM. This molecule registered a Kd in experiment [2] of 25.2 nM. Further, in the experiment with Karpas422 cells (setting [4]), the EC50 amounted to 502 nM.

For the molecule `C[C@H]1CN(C)CCN1c1cc(NC(=O)Cn2cc(-c3cc(C(N)=O)c(O)c(F)c3F)c3c(=O)n4c(nc32)CCC4)c(Cl)cn1` [I-4, (S)-5-(1-(2-((5-chloro-2-(2,4-dimethylpiperazin-1-yl)pyridin-4-yl)amino)-2-oxoethyl)-4-oxo-4,6,7,8-tetrahydro-1H-dipyrrolo [1,2-a:2′,3′-d]pyrimidin-3-yl)-3,4-difluoro-2-hydroxybenzamide], the IC50 in experiment [1] (setting [3]) was 318 nM. The molecule further yielded a Kd in experiment [2] of 23.2 nM. Moreover, the EC50 with Karpas422 cells (setting [4]) stood at 312 nM.

As to `C[C@H]1COCCN1c1cc(NC(=O)Cn2cc(-c3cc(C(N)=O)c(O)c(F)c3F)c3c(=O)n4c(nc32)CCC4)c(Cl)c(F)n1` [I-5, (S)-5-(1-(2-((3-chloro-2-fluoro-6-(3-methyl-morpholino)pyridin-4-yl)amino)-2-oxoethyl)-4-oxo-4,6,7,8-tetrahydro-1H-dipyrrolo[1,2-a:2′,3′-d]pyrimidin-3-yl)-3,4-difluoro-2-hydroxy-benzamide], the 50% inhibitory concentration (IC50) in experiment [1] came to 167 nM. This molecule also showed a Kd in experiment [2] of 11.7 nM. Also, the EC50 in the experiment on Karpas422 cells is 124 nM.

On to `C[C@H]1CN(CC2CC2)CCN1c1cc(NC(=O)Cn2cc(-c3cc(C(N)=O)c(O)c(F)c3F)c3c(=O)n4c(nc32)CCC4)c(Cl)cn1` [I-6, (S)-5-(1-(2-((5-chloro-2-(4-(cyclopropylmethyl)-2-methylpiperazin-1-yl)pyridin-4-yl)amino)-2-oxoethyl)-4-oxo-4,6,7,8-tetrahydro-1H-dipyrrolo[1,2-a:2′,3′-d]pyrimidin-3-yl)-3,4-difluoro-2-hydroxy-benzamide], for which the concentration for half-maximal inhibition (IC50) in experiment [1] (setting [3]) was 306 nM. In experiment [2], the Kd was found to be 25.9 nM. Moreover, the EC50 in the experiment on Karpas422 cells (setting [4]) turned out to be 997 nM.

`C[C@H]1CN(C2COC2)CCN1c1cc(NC(=O)Cn2cc(-c3cc(C(N)=O)c(O)c(F)c3F)c3c(=O)n4c(nc32)CCC4)c(Cl)cn1` [I-7, (S)-5-(1-(2-((5-chloro-2-(2-methyl-4-(oxetan-3-yl)piperazin-1-yl)pyridin-4-yl)amino)-2-oxoethyl)-4-oxo-4,6,7,8-tetrahydro-1H-dipyrrolo[1,2-a:2′,3′-d]pyrimidin-3-yl)-3,4-difluoro-2-hydroxy-benzamide]: the IC50 in experiment [1] (setting [3]) amounted to 213 nM. This molecule also registered a dissociation constant Kd in experiment [2] of 17.6 nM. Besides, the EC50 in the experiment with Karpas422 cells (setting [4]) worked out at 299 nM.

In the case of `C[C@H]1CN(CC2(C)CC2)CCN1c1cc(NC(=O)Cn2cc(-c3cc(C(N)=O)c(O)c(F)c3F)c3c(=O)n4c(nc32)CCC4)c(Cl)cn1` [I-9, (S)-5-(1-(2-((5-chloro-2-(2-methyl-4-((1-methyl-cyclopropyl)methyl)piperazin-1-yl)pyridin-4-yl)amino)-2-oxoethyl)-4-oxo-4,6,7,8-tetrahydro-1H-dipyrrolo[1,2-a:2′,3′-d]pyrimidin-3-yl)-3,4-difluoro-2-hydroxy-benzamide], the concentration for half-maximal inhibition (IC50) in experiment [1] (setting [3]) turned out to be 743 nM. Moreover, the dissociation constant Kd in experiment [2] came to 56.8 nM. The EC50 in the experiment on Karpas422 cells (setting [4]) amounted to 692 nM.

For `C[C@H]1CN(C)CCN1c1cc(NC(=O)Cn2cc(-c3cc(C(N)=O)c(O)c(Cl)c3F)c3c(=O)n4c(nc32)CCC4)c(Cl)c(F)n1` [I-10, (S)-3-chloro-5-(1-(2-((3-chloro-6-(2,4-dimethylpiperazin-1-yl)-2-fluoropyridin-4-yl)amino)-2-oxoethyl)-4-oxo-4,6,7,8-tetrahydro-1H-dipyrrolo[1,2-a:2′,3′-d]pyrimidin-3-yl)-4-fluoro-2-hydroxy-benzamide], the IC50 in experiment [1] came out at 448 nM. Also, the Kd in experiment [2] was 49.7 nM. In the experiment with Karpas422 cells, the EC50 was determined as 416 nM.

Consider `C[C@H]1COCCN1c1cc(NC(=O)Cn2cc(-c3cc(C(N)=O)c(O)c(Cl)c3F)c3c(=O)n4c(nc32)CCC4)c(Cl)c(F)n1` [I-11, (S)-3-chloro-5-(1-(2-((3-chloro-2-fluoro-6-(3-methylmorpholino)pyridin-4-yl)amino)-2-oxoethyl)-4-oxo-4,6,7,8-tetrahydro-1H-dipyrrolo [1,2-a:2′,3′-d]pyrimidin-3-yl)-4-fluoro-2-hydroxybenzamide], for which the IC50 in experiment [1] (setting [3]) is 988 nM. In experiment [2], this molecule yielded a Kd of 112 nM. The EC50 in the experiment on Karpas422 cells (setting [4]) worked out at 1900 nM.

With `C[C@H]1CN(C)CCN1c1cc(NC(=O)Cn2cc(-c3cc(C(N)=O)c(O)c(Cl)c3F)c3c(=O)n4c(nc32)CCC4)c(Cl)cn1` [I-12, (S)-3-chloro-5-(1-(2-((5-chloro-2-(2,4-dimethyl-piperazin-1-yl)pyridin-4-yl)amino)-2-oxoethyl)-4-oxo-4,6,7,8-tetrahydro-1H-dipyrrolo[1,2-a:2′,3′-d]pyrimidin-3-yl)-4-fluoro-2-hydroxy-benzamide], the IC50 in experiment [1] was 994 nM. Binding in experiment [2] was put at a Kd of 111 nM. Also, the EC50 in the experiment on Karpas422 cells stood at 1470 nM.

`C[C@H]1COCCN1c1cc(NC(=O)Cn2cc(-c3cc(C(N)=O)c(O)c(Cl)c3F)c3c(=O)n4c(nc32)CCC4)c(Cl)cn1` [I-13, (S)-3-chloro-5-(1-(2-((5-chloro-2-(3-methyl-morpholino)pyridin-4-yl)amino)-2-oxoethyl)-4-oxo-4,6,7,8-tetra-hydro-1H-dipyrrolo [1,2-a:2′,3′-d]pyrimidin-3-yl)-4-fluoro-2-hydroxybenzamide]: the IC50 in experiment [1] (setting [3]) turned out to be 1320 nM. The same molecule yielded a Kd in experiment [2] of 111 nM. The 50% effective concentration (EC50) in the experiment with Karpas422 cells (setting [4]) was 1870 nM.

`COc1c(O)c(C(N)=O)cc(-c2cn(CC(=O)Nc3cc(N4CCN(C)C[C@@H]4C)nc(F)c3Cl)c3nc4n(c(=O)c23)CCC4)c1F` [I-15, (S)-5-(1-(2-((3-chloro-6-(2,4-dimethylpiperazin-1-yl)-2-fluoropyridin-4-yl)amino)-2-oxoethyl)-4-oxo-4,6,7,8-tetrahydro-1H-dipyrrolo[1,2-a:2′,3′-d]pyrimidin-3-yl)-4-fluoro-2-hydroxy-3-methoxybenzamide]: the IC50 in experiment [1] amounted to 374 nM. The molecule also gave a Kd in experiment [2] of 34.1 nM.

Turning to `COc1c(O)c(C(N)=O)cc(-c2cn(CC(=O)Nc3cc(N4CCOC[C@@H]4C)nc(F)c3Cl)c3nc4n(c(=O)c23)CCC4)c1F` [I-16, (S)-5-(1-(2-((3-chloro-2-fluoro-6-(3-methyl-morpholino)pyridin-4-yl)amino)-2oxoethyl)-4-oxo-4,6,7,8-tetra-hydro-1H-dipyrrolo [1,2-a:2′,3′-d]pyri-midin-3-yl)-4-fluoro-2-hydroxy-3-methoxy-benzamide], in experiment [1], the IC50 came to 510 nM.
